# Measured values taken from patent publication US20100311714A1, “1H-IMIDAZO[4,5-c]QUINOLINONE COMPOUNDS” (priority 2009, published 2010).
# Target: T1, PI3K gamma (Homo sapiens, UniProt P48736)
# T1 construct: His tag (C); made in house; host or cells: construct from Roger Williams lab (pVL1393); baculovirus BV950; Tn5 (Trichoplusia ni) or TiniPro insect cells
# Assay: PI3K gamma kinase assay (Kinase-Glo luminescence)
# Assay type: biochemical
# Conditions: read-out: PI3Kgamma/IC50
# Experimental: In a more preferred assay, the kinase reaction is performed in a final volume of 10 μL per well of a low volume non binding CORNING, 384 well black plate (Cat. No. #3676). The final concentrations of ATP and phosphatidyl inositol (PI) in the assay are 1 μM and 10 μg/mL respectively. The reaction is started by the addition of ATP.
# The components of the assay are added per well as follows:
# 50 nL test compounds in 90% DMSO per well, in columns 1-20, 8 concentrations (⅓ and 1/3.33 serial dilution step) in single. • Low control: […] of 90% DMSO in half the wells of columns 23-24 (0.45% in final). • High control: 50 nL of reference compound (e.g. compound of Example 7 in WO 2006/122806) in the other half of columns 23-24 (2.5 μM in final). • Standard: 50 nL of reference compound as just mentioned diluted as the test compounds in columns 21-22 • 20 mL ‘buffer’ are prepared per assay: • 200 μL of 1M TRIS HCl pH7.5 (10 mM in final) • 60 μL of 1M MgCl2 (3 mM in final) • 500 μL of 2M NaCl (50 mM in final) • 100 μL of 10% CHAPS (0.05% in final) • 200 μL of 100 mM DTT (1 mM in final) • 18.94 mL of nanopure water • 10 mL ‘PI’ are prepared per assay: • 200 μL of 1 mg/ml L-alpha-Phosphatidylinositol (Liver Bovine, Avanti Polar Lipids Cat. No. 840042C MW=909.12) prepared in 3% OctylGlucoside (10 μg/ml in final) • 9.8 mL of ‘buffer’ • 10 mL ‘ATP’ are prepared per assay: • 6.7 μL of 3 mM stock of ATP giving a final concentration of 1 μM per well • 10 mL of ‘buffer’ • 2.5 mL of each PI3K construct are prepared per assay in ‘PI’ with the following final concentration: • 10 nM PI3K alfa EMV B1075 • 25 nM beta EMV BV949 • 10 nM delta EMV BV1060 • 150 nM gamma EMV BV950 • 5 μL of ‘PI/PI3K’ are added per well. • 5 μl ‘ATP’ are added per well to start the reaction. • The plates are then incubated at room temperature for 60 minutes (alfa, beta, delta) or 120 minutes (gamma). • The reaction is terminated by the addition of 10 μL Kinase-Glo (Promega Cat. No. #6714). • The assay plates are read after 10 minutes in Synergy 2 reader (BioTek, Vermont USA) with an integration time of 100 milliseconds and sensitivity set to 191. • Output: The High control is around 60′000 counts and the Low control is 30′000 or lower • This luminescence assay gives a useful Z′ ratio between 0.4 and 0.7
# PI3K gamma is purified in two chromatographic steps: immobilized metal affinity chromatography (IMAC) on a Ni Sepharose resin (GE Healthcare) and gel filtration (GFC) utilizing a Superdex 200 26/60 column (GE Healthcare). All buffers are chilled to 4° C. and lysis is performed chilled on ice. Column fractionation is performed rapidly at room temperature. Typically frozen insect cells are lysed in a hypertonic lysis buffer and applied to a prepared IMAC column. The resin is washed with 3-5 column volumes of lysis buffer, followed by 3-5 column volumes wash buffer containing 45 mM imidazole, and the target protein is then eluted with a buffer containing 250 mM imidazole. Fractions are analyzed by Coomassie stained SDS-PAGE gels, and fractions containing target protein are pooled and applied to a prepared GFC column. Fractions from the GFC column are analyzed by Coomassie stained SDS-PAGE gels, and fractions containing target protein are pooled. The final pool is dialyzed into a storage buffer containing 50% glycerol and stored at −20° C. The final pool is assayed for activity in the phosphoinostitol kinase assay.
# IC50 is determined by a four parameter curve fitting routine that comes along with “excel fit”. A 4 Parameter logistic equation is used to calculate IC50 values (IDBS XLfit) of the percentage inhibition of each compound at 8 concentrations (usually 10, 3.0, 1.0, 0.3, 0.1, 0.030, 0.010 and 0.003 μM). Alternatively, IC50 values are calculated using idbsXLfit model 204, which is a 4 parameter logistic model.
# T1 sequence (P48736 144-1102 limits assumed): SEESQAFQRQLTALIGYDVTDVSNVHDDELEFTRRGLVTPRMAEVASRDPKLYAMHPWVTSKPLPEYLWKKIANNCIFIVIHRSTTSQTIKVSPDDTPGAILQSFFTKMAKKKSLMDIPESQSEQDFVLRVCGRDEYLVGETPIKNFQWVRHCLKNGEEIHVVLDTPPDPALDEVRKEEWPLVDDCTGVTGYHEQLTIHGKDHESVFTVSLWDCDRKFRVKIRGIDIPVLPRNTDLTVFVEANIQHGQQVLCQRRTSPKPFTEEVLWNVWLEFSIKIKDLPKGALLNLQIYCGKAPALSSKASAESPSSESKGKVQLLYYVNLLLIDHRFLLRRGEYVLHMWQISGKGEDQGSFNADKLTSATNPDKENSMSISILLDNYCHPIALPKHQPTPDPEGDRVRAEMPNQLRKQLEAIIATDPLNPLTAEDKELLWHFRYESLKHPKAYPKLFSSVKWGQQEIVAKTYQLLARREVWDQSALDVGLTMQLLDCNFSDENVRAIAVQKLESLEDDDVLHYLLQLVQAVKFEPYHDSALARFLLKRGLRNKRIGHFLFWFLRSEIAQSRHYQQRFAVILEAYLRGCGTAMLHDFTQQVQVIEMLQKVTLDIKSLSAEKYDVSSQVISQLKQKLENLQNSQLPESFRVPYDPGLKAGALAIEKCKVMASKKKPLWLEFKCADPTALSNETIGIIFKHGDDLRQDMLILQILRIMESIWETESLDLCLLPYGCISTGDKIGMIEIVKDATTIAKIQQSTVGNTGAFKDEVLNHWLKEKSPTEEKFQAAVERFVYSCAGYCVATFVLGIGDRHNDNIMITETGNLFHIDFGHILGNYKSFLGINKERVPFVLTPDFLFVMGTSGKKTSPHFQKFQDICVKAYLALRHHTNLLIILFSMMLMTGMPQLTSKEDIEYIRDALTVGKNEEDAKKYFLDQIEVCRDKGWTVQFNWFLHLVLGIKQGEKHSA
row,IC50 [nM],Structure (SMILES)
1,361,"Cc1ncccc1-n1c(=O)n(C)c2cnc3ccc(-c4cnc5[nH]ccc5c4)cc3c21 [Example 2.8, 3-Methyl-1-(2-methyl-pyridin-3-yl)-8-(1H-pyrrolo[2,3-b]pyridin-5-yl)-1,3-dihydro-imidazo[4,5-c]quinolin-2-one]"
2,464,"Cn1c(=O)n(-c2cccnc2F)c2c3cc(-c4cnc5[nH]ccc5c4)ccc3ncc21 [Example 6.3, 1-(2-Fluoro-pyridin-3-yl)-3-methyl-8-(1H-pyrrolo[2,3-b]pyridin-5-yl)-1,3-dihydro-imidazo[4,5-c]quinolin-2-one]"
3,455,"CNC(=O)c1ccc(-c2ccc3ncc4c(c3c2)n(-c2cccnc2C)c(=O)n4C)cc1 [Example 2.4, N-Methyl-4-[3-methyl-1-(2-methyl-pyridin-3-yl)-2-oxo-2,3-dihydro-1H-imidazo[4,5-c]quinolin-8-yl]-benzamide]"
